Entries after “also recorded” stand apart in the source; their conditions may differ.
Key:
[1] = phase III clinical study results announced in November 2020, moderate to severe plaque psoriasis; cited from earlier work
[2] = systemic lupus erythematosus and Crohn's disease; cited from earlier work
[3] = Storage stability at 25 °C/60% RH and 40 °C/75% RH, crystalline form by XRPD and chemical purity by HPLC; format: physicochemical; settings: for Crystalline form after storage: XRPD; for Purity: HPLC
Procedure: Approximately 5 mg of Form CSI in the present disclosure was stored under different conditions of 25° C./60% RH and 40° C./75% RH. Crystalline form and chemical purity were checked by XRPD and HPLC, respectively.
Approximately 5 mg of Form CSII in the present disclosure was stored under different conditions of 25° C./60% RH and 40° C./75% RH. Crystalline form and chemical purity were checked by XRPD and HPLC, respectively.

[4] = Physical stability under pressure (tableting), XRPD before and after; format: physicochemical
Text: A certain amount of Form CSI was compressed into tablets under 3 kN, 7 kN and 14 kN with suitable tableting die. Crystalline forms before and after tableting were checked by XRPD.
A certain amount of Form CSII was compressed into tablets under 5 kN, 10 kN and 20 kN with suitable tableting die. Crystalline forms before and after tableting were checked by XRPD.

[5] = Physical stability on manual grinding, XRPD before and after; format: physicochemical; settings: ground manually for 5 minutes in a mortar
Procedure: Form CSII was grounded manually for 5 minutes in a mortar. Crystalline form before and after grinding were checked by XRPD.

[6] = Compressibility (ENERPAC manual tablet press, tablet hardness and tensile strength); format: physicochemical; settings: 80 mg, φ6 mm round tooling, 10 KN; for Diameter / Hardness / Thickness: after 24 h at room temperature; for Tensile strength: calculated T=2H/πDL*9.8
Procedure: ENERPAC manual tablet press was used for compression. 80 mg of Form CSI and Form A were weighed and added into the dies of a φ6 mm round tooling, compressed at 10 KN manually, then stored at room temperature for 24 h until complete elastic recovery. Hardness (H) was tested with an intelligent tablet hardness tester. Diameter (D) and thickness (L) were tested with caliper. Tensile strength of the powder was calculated with the following formula: T=2H/πDL*9.8. Under a certain force, the greater the tensile strength, the better the compressibility.
ENERPAC manual tablet press was used for compression. 80 mg of Form CSII and Form A were weighed and added into the dies of a φ6 mm round tooling, compressed at 10 KN manually, then stored at room temperature for 24 h until complete elastic recovery. Hardness (H) was tested with an intelligent tablet hardness tester. Diameter (D) and thickness (L) were tested with caliper. Tensile strength of the powder was calculated with the following formula: T=2H/πDL*9.8. Under a certain force, the greater the tensile strength, the better the compressibility.

[7] = Adhesiveness (material sticking to the punch during compression); format: physicochemical; settings: for Adhesiveness (in words): compared with Form A where a comparison is stated
Procedure: Approximately 30 mg of Form CSII and Form A were weighed and then added into the dies of φ8 mm round tooling, compressed at 10 kN and held for 30 s. The material sticking to the punch was recorded. The compression was repeated twice and the cumulative amount, maximum amount and average amount of material sticking to the punch during the compression were recorded.

[8] = Thermodynamic stability: suspension of Form A plus Form CSI stirred at 5 °C, solid checked by XRPD; format: physicochemical
Procedure: A certain amount of Form A was weighed into glass vail and 0.3 mL of solvent mixtures of water and acetonitrile, water and methanol, or water and acetone according to table 8 were added to form suspensions. Approximately 6 mg of Form CSI of the present disclosure was added in the suspension. After mixing at 5° C. for 5 minutes, a portion of the solid was taken out and tested by XRPD. After the suspension was stirred at 5° C. for 6 days, a portion of the solid was taken out and tested by XRPD again.

[9] = 25 °C/60% RH, open and sealed, 6 months
[10] = 25 °C/60% RH, sealed (closed), 6 months
[11] = 40 °C/75% RH, open and sealed, 6 months
[12] = 40 °C/75% RH, sealed (closed), 6 months
[13] = about 30 mg, φ8 mm round tooling, 10 kN held for 30 s

Row | SMILES | Time for which the crystalline form is stable (does not change) ([3]; 25 °C/60% RH, open and sealed) | Change of chemical purity during storage (in words) [3, 9] | Crystalline form after storage ([3]; 25 °C/60% RH, open, 6 months) | Crystalline form after storage [3, 10] | Time for which the crystalline form is stable (does not change) ([3]; 40 °C/75% RH, open and sealed) | Change of chemical purity during storage (in words) [3, 11] | Crystalline form after storage ([3]; 40 °C/75% RH, open, 6 months) | Crystalline form after storage [3, 12] | Compressibility / behaviour during tablet pressing (in words) [6] | Diameter [6] | Hardness [6] | Thickness [6] | Tensile strength [6] | Average amount of material sticking to the punch [7, 13] | Maximum amount of material sticking to the punch [7, 13] | Adhesiveness (in words) [7] | further results
1 | [2H]C([2H])([2H])NC(=O)c1nnc(NC(=O)C2CC2)cc1Nc1cccc(-c2ncn(C)n2)c1OC [BMS-986165, 6-(cyclopropanecarboxamido)-4-((2-methoxy-3-(1-methyl-1H-1,2,4-triazol-3-yl)phenyl)amino)-N-(methyl-d3)pyridazine-3-carboxamide] | – | – | – | – | – | – | – | – | – | – | – | – | – | – | – | – | Clinical effect [1]: positive clinical effects; Therapeutic effect [2]: good therapeutic effects
2 | [2H]C([2H])([2H])NC(=O)c1nnc(NC(=O)C2CC2)cc1Nc1cccc(-c2ncn(C)n2)c1OC [Form CSII, 6-(cyclopropanecarboxamido)-4-((2-methoxy-3-(1-methyl-1H-1,2,4-triazol-3-yl)phenyl)amino)-N-(methyl-d3)pyridazine-3-carboxamide] | at least 6 months | remains substantially unchanged | Form CSII | Form CSII | at least 6 months | remains substantially unchanged | Form CSII | Form CSII | better compressibility compared with Form A | 6.08 mm | 4.24 kgf | 2.30 mm | 1.89 MPa | 0.06 mg | 0.06 mg | superior to that of Form A | Crystalline state after tableting ([4]; tablets compressed under 5 kN, 10 kN and 20 kN): does not change; Crystalline state after grinding [5]: does not change; also recorded: doesn't change
3 | [2H]C([2H])([2H])NC(=O)c1nnc(NC(=O)C2CC2)cc1Nc1cccc(-c2ncn(C)n2)c1OC [Form CSI, 6-(cyclopropanecarboxamido)-4-((2-methoxy-3-(1-methyl-1H-1,2,4-triazol-3-yl)phenyl)amino)-N-(methyl-d3)pyridazine-3-carboxamide] | at least 6 months | remains substantially unchanged | CSI | CSI | at least 6 months | remains substantially unchanged | CSI | CSI | better compressibility compared with Form A | 6.06 mm | 7.87 kgf | 2.39 mm | 3.39 MPa | 0.105 mg | 0.130 mg | superior to that of Form A | Crystalline form of solid after stirring time 5 minutes ([8]; mixture of Form A and about 6 mg Form CSI suspended in 0.3 mL water/acetonitrile, water/methanol or water/acetone (samples 1-7), 5 minutes, XRPD): Form A +; Crystalline form of solid after stirring time 6 days ([8]; mixture of Form A and about 6 mg Form CSI suspended in 0.3 mL water/acetonitrile, water/methanol or water/acetone (samples 1-7), 6 days, XRPD): CSI; Stability relative to Form A (in words) ([8]; water/acetonitrile, water/methanol or water/acetone): better stability than Form A; Chemical purity during storage [3, 9]: above 98.0%; Purity ([3]; 25 °C/60% RH, open, 6 months): 98.76%; Purity ([3]; 25 °C/60% RH, sealed, 6 months): 98.79%; Purity ([3]; 40 °C/75% RH, open, 6 months): 98.74%; Purity ([3]; 40 °C/75% RH, sealed, 6 months): 98.73%; Purity ([3]; initial): 98.13%; Crystalline state after tableting ([4]; tablets compressed under 3 kN, 7 kN and 14 kN): does not change; also recorded: doesn't change
4 | [2H]C([2H])([2H])NC(=O)c1nnc(NC(=O)C2CC2)cc1Nc1cccc(-c2ncn(C)n2)c1OC [Form A, 6-(cyclopropanecarboxamido)-4-((2-methoxy-3-(1-methyl-1H-1,2,4-triazol-3-yl)phenyl)amino)-N-(methyl-d3)pyridazine-3-carboxamide, reference compound] | – | – | – | – | – | – | – | – | poor compressibility; also recorded: splintering | – | – | – | – | 0.190 mg | 0.260 mg | high adhesiveness | Adhesion quantity of Form A relative to that of Form CSII [7, 13]: 3.2 times

— patent US20230039086A1, “BMS-986165 CRYSTAL FORM, PREPARATION METHOD THEREFOR AND USE THEREOF” (CRYSTAL PHARMACEUTICAL (SUZHOU) CO., LTD., priority 2019, published 2023)
